Measurements as given in PubChem BioAssay (NCI).
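At the GI50, growth is halved. TGI: total growth inhibition.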

Tests used:
Test in all cases: NCI tumour cell line growth inhibition, 384-well format
MCF7 breast = system: MCF7 breast
NCI-H23 lung = system: NCI-H23 lung
COLO 205 colon = system: COLO 205 colon
LOX IMVI melanoma = system: LOX IMVI melanoma
MDA-MB-231 breast = system: MDA-MB-231 breast
MDA-MB-468 breast = system: MDA-MB-468 breast
SK-MEL-28 melanoma = system: SK-MEL-28 melanoma
786-0 renal = system: 786-0 renal
SF-295 CNS = system: SF-295 CNS
HT29 colon = system: HT29 colon
RXF 393 renal = system: RXF 393 renal
HOP-92 NSCLC = system: HOP-92 NSCLC
NCI-H226 lung = system: NCI-H226 lung
OVCAR-4 ovarian = system: OVCAR-4 ovarian
ACHN renal = system: ACHN renal
T-47D breast = system: T-47D breast
U251 glioblastoma = system: U251 glioblastoma
OVCAR-8 ovarian = system: OVCAR-8 ovarian
NCI-H322M lung = system: NCI-H322M lung
HCT-116 colon = system: HCT-116 colon
SN12C renal = system: SN12C renal
SF-268 CNS = system: SF-268 CNS
SNB-19 CNS = system: SNB-19 CNS
SF-539 CNS = system: SF-539 CNS
UACC-257 melanoma = system: UACC-257 melanoma
HCC-2998 colon = system: HCC-2998 colon
MALME-3M melanoma = system: MALME-3M melanoma
SK-OV-3 ovarian = system: SK-OV-3 ovarian
NCI-H460 NSCLC = system: NCI-H460 NSCLC
DU-145 prostate = system: DU-145 prostate
HL-60(TB) leukemia = system: HL-60(TB) leukemia
RPMI-8226 leukemia = system: RPMI-8226 leukemia
TK-10 renal = system: TK-10 renal
CAKI-1 renal = system: CAKI-1 renal
CCRF-CEM leukemia = system: CCRF-CEM leukemia
BT-549 breast = system: BT-549 breast
M14 melanoma = system: M14 melanoma
SR leukemia = system: SR leukemia
UACC-62 melanoma = system: UACC-62 melanoma
HCT-15 colon = system: HCT-15 colon
OVCAR-3 ovarian = system: OVCAR-3 ovarian
SW-620 colon = system: SW-620 colon
MDA-MB-435 melanoma = system: MDA-MB-435 melanoma
PC-3 prostate = system: PC-3 prostate
HOP-62 NSCLC = system: HOP-62 NSCLC
A549 NSCLC = system: A549 NSCLC
A498 renal = system: A498 renal
IGROV1 ovarian = system: IGROV1 ovarian
MOLT-4 leukemia = system: MOLT-4 leukemia
SK-MEL-2 melanoma = system: SK-MEL-2 melanoma
K-562 leukemia = system: K-562 leukemia
KM12 colon = system: KM12 colon
UO-31 renal = system: UO-31 renal
SK-MEL-5 melanoma = system: SK-MEL-5 melanoma
NCI-H522 lung = system: NCI-H522 lung
NCI/ADR-RES ovarian = system: NCI/ADR-RES ovarian
OVCAR-5 ovarian = system: OVCAR-5 ovarian

Question: What does the source list for C#Cc1c(F)ccc2cc(O)cc(-c3ncc4c(N5CC6CCC(C5)N6)nc(OC[C@@]56CCCN5C[C@H](F)C6)nc4c3F)c12?
Answer: GI50 (MCF7 breast): 2.36 µM; TGI (MCF7 breast): 5.28 µM; GI50 (NCI-H23 lung): 0.568 µM; TGI (NCI-H23 lung): 3.51 µM; GI50 (COLO 205 colon): 2.02 µM; TGI (COLO 205 colon): 3.94 µM; GI50 (LOX IMVI melanoma): 2.23 µM; TGI (LOX IMVI melanoma): 3.7 µM; GI50 (MDA-MB-231 breast): 1.94 µM; TGI (MDA-MB-231 breast): 4 µM; GI50 (MDA-MB-468 breast): 2.08 µM; TGI (MDA-MB-468 breast): 3.55 µM; GI50 (SK-MEL-28 melanoma): 1.87 µM; TGI (SK-MEL-28 melanoma): 3.29 µM; GI50 ([…]-0 renal): 12.4 µM; TGI (786-0 renal): 24.9 µM; GI50 (SF-295 CNS): 17.7 µM; TGI (SF-295 CNS): 31.6 µM; GI50 (HT29 colon): 2.02 µM; TGI (HT29 colon): 4.05 µM; GI50 (RXF 393 renal): 2.41 µM; TGI (RXF 393 renal): 6.19 µM; GI50 (HOP-92 NSCLC): 2.03 µM; TGI (HOP-92 NSCLC): 4.02 µM; GI50 (NCI-H226 lung): 10.7 µM; TGI (NCI-H226 lung): 22.6 µM; GI50 (OVCAR-4 ovarian): 7.07 µM; TGI (OVCAR-4 ovarian): 19.7 µM; GI50 (ACHN renal): 16.1 µM; TGI (ACHN renal): 29.7 µM; GI50 (T-47D breast): 2.03 µM; TGI (T-47D breast): 5.32 µM; GI50 (U251 glioblastoma): 1.83 µM; TGI (U251 glioblastoma): 3.36 µM; GI50 (OVCAR-8 ovarian): 12.2 µM; TGI (OVCAR-8 ovarian): 24.7 µM; GI50 (NCI-H322M lung): 6.12 µM; TGI (NCI-H322M lung): 19.3 µM; GI50 (HCT-116 colon): 1.37 µM; TGI (HCT-116 colon): 2.9 µM; GI50 (SN12C renal): 11.5 µM; TGI (SN12C renal): 23.7 µM; GI50 (SF-268 CNS): 1.99 µM; TGI (SF-268 CNS): 4.34 µM; GI50 (SNB-19 CNS): 10.8 µM; TGI (SNB-19 CNS): 22.8 µM; GI50 (SF-539 CNS): 1.92 µM; TGI (SF-539 CNS): 3.52 µM; GI50 (UACC-257 melanoma): 1.77 µM; TGI (UACC-257 melanoma): 3.17 µM; GI50 (HCC-2998 colon): 0.303 µM; TGI (HCC-2998 colon): 1.67 µM; GI50 (MALME-3M melanoma): 1.99 µM; TGI (MALME-3M melanoma): 3.43 µM; GI50 (SK-OV-3 ovarian): 2.36 µM; TGI (SK-OV-3 ovarian): 5.59 µM; GI50 (NCI-H460 NSCLC): 1.51 µM; TGI (NCI-H460 NSCLC): 5.97 µM; GI50 (DU-145 prostate): 13.7 µM; TGI (DU-145 prostate): 26.6 µM; GI50 (HL-60(TB) leukemia): 1.87 µM; TGI (HL-60(TB) leukemia): 3.28 µM; GI50 (RPMI-8226 leukemia): 0.0774 µM; TGI (RPMI-8226 leukemia): 0.845 µM; GI50 (TK-10 renal): 17.3 µM; TGI (TK-10 renal): 31.1 µM; GI50 (CAKI-1 renal): 10.9 µM; TGI (CAKI-1 renal): 22.9 µM; GI50 (CCRF-CEM leukemia): 1.25 µM; TGI (CCRF-CEM leukemia): 2.51 µM; GI50 (BT-549 breast): 1.86 µM; TGI (BT-549 breast): 3.47 µM; GI50 (M14 melanoma): 1.78 µM; TGI (M14 melanoma): 3.27 µM; GI50 (SR leukemia): 1.06 µM; TGI (SR leukemia): 2.25 µM; GI50 (UACC-62 melanoma): 1.78 µM; TGI (UACC-62 melanoma): 3.18 µM; GI50 (HCT-15 colon): 14.6 µM; TGI (HCT-15 colon): 27.8 µM; GI50 (OVCAR-3 ovarian): 4.45 µM; TGI (OVCAR-3 ovarian): 16.6 µM; GI50 (SW-620 colon): 0.375 µM; TGI (SW-620 colon): 1.61 µM; GI50 (MDA-MB-435 melanoma): 1.93 µM; TGI (MDA-MB-435 melanoma): 3.4 µM; GI50 (PC-3 prostate): 9.06 µM; TGI (PC-3 prostate): 21 µM; GI50 (HOP-62 NSCLC): 0.853 µM; TGI (HOP-62 NSCLC): 10.2 µM; GI50 (A549 NSCLC): 5.54 µM; TGI (A549 NSCLC): 18.5 µM; GI50 (A498 renal): 10.5 µM; TGI (A498 renal): 22.4 µM; GI50 (IGROV1 ovarian): 12.4 µM; TGI (IGROV1 ovarian): 24.9 µM; GI50 (MOLT-4 leukemia): 1.9 µM; TGI (MOLT-4 leukemia): 3.32 µM; GI50 (SK-MEL-2 melanoma): 1.85 µM; TGI (SK-MEL-2 melanoma): 3.26 µM; GI50 (K-562 leukemia): 3.58 µM; TGI (K-562 leukemia): 9.9 µM; GI50 (KM12 colon): 2.07 µM; TGI (KM12 colon): 5.31 µM; GI50 (UO-31 renal): 15.8 µM; TGI (UO-31 renal): 29.3 µM; GI50 (SK-MEL-5 melanoma): 1.67 µM; TGI (SK-MEL-5 melanoma): 3.66 µM; GI50 (NCI-H522 lung): 1.83 µM; TGI (NCI-H522 lung): 3.63 µM; GI50 (NCI/ADR-RES ovarian): 85.7 µM; TGI (NCI/ADR-RES ovarian): > 100 µM; GI50 (OVCAR-5 ovarian): 3.14 µM; TGI (OVCAR-5 ovarian): 10.5 µM
